Measured values taken from ChEMBL document CHEMBL1201862, “PubChem BioAssay data set” (2004).
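Values below derive from 48-hour exposures of cells grown in 96-well plates, with endpoints linearly interpolated between the two concentrations bracketing the appropriate inhibition level. At the GI50, growth is halved.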 Calls of active or inactive are those of the source. Cut-off read from the data, not from the text of the source: active = GI50 up to about 1.1 µM and inactive = higher.

Legend:
Assay in all cases: NCI tumour cell line growth inhibition, 48 h
786-0 = test system: 786-0
A498 = test system: A498
A549 = test system: A549
ACHN = test system: ACHN
BT-549 = test system: BT-549
CAKI-1 = test system: CAKI-1
CCRF-CEM = test system: CCRF-CEM
COLO 205 = test system: COLO 205
DU-145 = test system: DU-145
EKVX = test system: EKVX
HCC 2998 = test system: HCC 2998
HCT-116 = test system: HCT-116
HCT-15 = test system: HCT-15
HL-60 = test system: HL-60
HOP-62 = test system: HOP-62
HOP-92 = test system: HOP-92
HT-29 = test system: HT-29
Hs-578T = test system: Hs-578T
IGROV-1 = test system: IGROV-1
K562 = test system: K562
KM12 = test system: KM12
LOX IMVI = test system: LOX IMVI
M14 = test system: M14
MCF7 = test system: MCF7
MDA-MB-231 = test system: MDA-MB-231
MDA-MB-435 = test system: MDA-MB-435
MDA-N = test system: MDA-N
MOLT-4 = test system: MOLT-4
Malme-3M = test system: Malme-3M
NCI-H226 = test system: NCI-H226
NCI-H23 = test system: NCI-H23
NCI-H460 = test system: NCI-H460
NCI-H522 = test system: NCI-H522
NCI/ADR-RES = test system: NCI/ADR-RES
OVCAR-3 = test system: OVCAR-3
OVCAR-4 = test system: OVCAR-4
OVCAR-5 = test system: OVCAR-5
OVCAR-8 = test system: OVCAR-8
PC-3 = test system: PC-3
RPMI-8226 = test system: RPMI-8226
RXF 393 = test system: RXF 393
SF-268 = test system: SF-268
SF-295 = test system: SF-295
SF-539 = test system: SF-539
SK-MEL-28 = test system: SK-MEL-28
SK-MEL-2 = test system: SK-MEL-2
SK-MEL-5 = test system: SK-MEL-5
SK-OV-3 = test system: SK-OV-3
SN12C = test system: SN12C
SNB-19 = test system: SNB-19
SNB-75 = test system: SNB-75
SR = test system: SR
SW-620 = test system: SW-620
T47D = test system: T47D
TK-10 = test system: TK-10
U-251 = test system: U-251
UACC-257 = test system: UACC-257
UACC-62 = test system: UACC-62
UO-31 = test system: UO-31

O=C1SC(SCc2ccccc2)=NC12CC2c1ccccc1 (stereo not drawn)
GI50 (786-0): 19.4 µM (inactive)
GI50 (A498): 25.5 µM (inactive)
GI50 (A549): 26.9 µM (inactive)
GI50 (ACHN): 17.9 µM (inactive)
GI50 (BT-549): 20.2 µM (inactive)
GI50 (CAKI-1): 20 µM (inactive)
GI50 (CCRF-CEM): 2.93 µM (inactive)
GI50 (COLO 205): 23.4 µM (inactive)
GI50 (DU-145): 29 µM (inactive)
GI50 (EKVX): 20.2 µM (inactive)
GI50 (HCC 2998): 7.62 µM (inactive)
GI50 (HCT-116): 16.6 µM (inactive)
GI50 (HCT-15): 20.4 µM
GI50 (HL-60): 3.56 µM (inactive)
GI50 (HOP-62): 29 µM (inactive)
GI50 (HOP-92): 17.1 µM (inactive)
GI50 (HT-29): 21.3 µM (inactive)
GI50 (Hs-578T): 24.3 µM (inactive)
GI50 (IGROV-1): 21.4 µM (inactive)
GI50 (K562): 19.5 µM (inactive)
GI50 (KM12): 17.7 µM (inactive)
GI50 (LOX IMVI): 18.8 µM (inactive)
GI50 (M14): 17.4 µM (inactive)
GI50 (MCF7): 18.8 µM (inactive)
GI50 (MDA-MB-231): 20.3 µM (inactive)
GI50 (MDA-MB-435): 22.1 µM (inactive)
GI50 (MDA-N): 20.9 µM (inactive)
GI50 (MOLT-4): 1.34 µM (inactive)
GI50 (Malme-3M): 17.7 µM (inactive)
GI50 (NCI-H226): 23.6 µM (inactive)
GI50 (NCI-H23): 20.1 µM (inactive)
GI50 (NCI-H460): 18.7 µM (inactive)
GI50 (NCI-H522): 14.5 µM (inactive)
GI50 (NCI/ADR-RES): 23.9 µM (inactive)
GI50 (OVCAR-3): 27.7 µM (inactive)
GI50 (OVCAR-4): 16 µM (inactive)
GI50 (OVCAR-5): 18.5 µM (inactive)
GI50 (OVCAR-8): 19.4 µM (inactive)
GI50 (PC-3): 23.3 µM (inactive)
GI50 (RPMI-8226): 16.7 µM (inactive)
GI50 (RXF 393): 18.7 µM (inactive)
GI50 (SF-268): 27 µM (inactive)
GI50 (SF-295): 19.7 µM (inactive)
GI50 (SF-539): 20.7 µM (inactive)
GI50 (SK-MEL-28): 19 µM (inactive)
GI50 (SK-MEL-2): 18.7 µM (inactive)
GI50 (SK-MEL-5): 17.8 µM (inactive)
GI50 (SK-OV-3): 37.7 µM (inactive)
GI50 (SN12C): 20 µM (inactive)
GI50 (SNB-19): 26.7 µM (inactive)
GI50 (SNB-75): 29.2 µM (inactive)
GI50 (SR): 21.3 µM (inactive)
GI50 (SW-620): 22.4 µM (inactive)
GI50 (T47D): 28.5 µM (inactive)
GI50 (TK-10): 25.6 µM (inactive)
GI50 (U-251): 18.3 µM (inactive)
GI50 (UACC-257): 16.8 µM (inactive)
GI50 (UACC-62): 17.1 µM (inactive)
GI50 (UO-31): 19.5 µM (inactive)

COc1ccc(-c2nc3ccc(C)cc3o2)c(OC)c1
GI50 (786-0): 21.4 µM (inactive)
GI50 (A498): 18.6 µM (inactive)
GI50 (A549): 4.76 µM (inactive)
GI50 (ACHN): 33 µM (inactive)
GI50 (BT-549): 23.7 µM (inactive)
GI50 (CAKI-1): 29.8 µM (inactive)
GI50 (CCRF-CEM): 24.1 µM (inactive)
GI50 (COLO 205): 20.7 µM (inactive)
GI50 (DU-145): 25.8 µM (inactive)
GI50 (EKVX): 19.6 µM (inactive)
GI50 (HCC 2998): 14.9 µM (inactive)
GI50 (HCT-116): 17.9 µM (inactive)
GI50 (HCT-15): 22.5 µM
GI50 (HL-60): 20.4 µM (inactive)
GI50 (HOP-62): 26.8 µM (inactive)
GI50 (HOP-92): 25.4 µM (inactive)
GI50 (HT-29): 5.28 µM (inactive)
GI50 (Hs-578T): 25.8 µM (inactive)
GI50 (IGROV-1): 20.8 µM (inactive)
GI50 (K562): 22.1 µM (inactive)
GI50 (KM12): 19.2 µM (inactive)
GI50 (LOX IMVI): 16.6 µM (inactive)
GI50 (M14): 18.2 µM (inactive)
GI50 (MCF7): 30 µM (inactive)
GI50 (MDA-MB-231): 19.8 µM (inactive)
GI50 (MDA-MB-435): 21.6 µM (inactive)
GI50 (MDA-N): 23.9 µM (inactive)
GI50 (MOLT-4): 11.3 µM (inactive)
GI50 (Malme-3M): 21.2 µM (inactive)
GI50 (NCI-H226): 30 µM (inactive)
GI50 (NCI-H23): 27.8 µM (inactive)
GI50 (NCI-H460): 2.93 µM (inactive)
GI50 (NCI-H522): 18.8 µM (inactive)
GI50 (NCI/ADR-RES): 29.4 µM (inactive)
GI50 (OVCAR-3): 15.7 µM (inactive)
GI50 (OVCAR-4): 26.9 µM (inactive)
GI50 (OVCAR-5): 14.9 µM (inactive)
GI50 (OVCAR-8): 26.4 µM (inactive)
GI50 (PC-3): 24.3 µM (inactive)
GI50 (RPMI-8226): 19.5 µM (inactive)
GI50 (RXF 393): 22.5 µM (inactive)
GI50 (SF-268): 28.6 µM (inactive)
GI50 (SF-295): 19.9 µM (inactive)
GI50 (SF-539): 20 µM (inactive)
GI50 (SK-MEL-28): 55.7 µM (inactive)
GI50 (SK-MEL-2): 24.6 µM (inactive)
GI50 (SK-MEL-5): 19.3 µM (inactive)
GI50 (SK-OV-3): 41.5 µM (inactive)
GI50 (SN12C): 26.5 µM (inactive)
GI50 (SNB-19): 7.41 µM (inactive)
GI50 (SNB-75): 16.7 µM (inactive)
GI50 (SR): 14.3 µM (inactive)
GI50 (SW-620): 29.3 µM (inactive)
GI50 (T47D): 30.1 µM (inactive)
GI50 (TK-10): 27.4 µM (inactive)
GI50 (U-251): 1.63 µM (inactive)
GI50 (UACC-257): 17.7 µM (inactive)
GI50 (UACC-62): 23.5 µM (inactive)
GI50 (UO-31): 24 µM (inactive)
